# pKi: −log10 of the molar value.
# Tests used:
# Adenosine receptor A1 = target: T1, Adenosine receptor A1 (Homo sapiens, UniProt P30542); experiment: Displacement of [3H]R-PIA from recombinant human A1 adenosine receptor expressed in CHO cell membrane incubated for 60 mins by liquid scintillation counting method; format: cell membranes
# T1 sequence (P30542 whole entry): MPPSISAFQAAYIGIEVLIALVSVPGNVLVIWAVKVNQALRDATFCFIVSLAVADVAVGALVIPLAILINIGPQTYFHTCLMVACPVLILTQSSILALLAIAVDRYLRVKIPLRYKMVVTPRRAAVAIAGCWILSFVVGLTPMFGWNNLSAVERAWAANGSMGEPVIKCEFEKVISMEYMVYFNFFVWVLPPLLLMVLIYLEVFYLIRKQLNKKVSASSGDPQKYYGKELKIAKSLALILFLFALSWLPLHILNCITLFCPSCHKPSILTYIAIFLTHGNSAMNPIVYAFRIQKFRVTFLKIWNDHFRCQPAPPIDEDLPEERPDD
# Adenosine receptor A2a = Adenosine receptor A2a (Homo sapiens, UniProt P29274); experiment: Displacement of [3H]CGS21680 from recombinant human A2A adenosine receptor expressed in HEK293 cells incubated for 60 mins by liquid scintillation counting method; format: cell-based
# Adenosine receptor A3 = target: T2, Adenosine receptor A3 (Homo sapiens, UniProt P0DMS8); experiment: Displacement of [125I]AB-MECA from human A3 adenosine receptor expressed in CHO cell membrane incubated for 60 mins by gamma counter method; format: cell membranes
# T2 sequence (P0DMS8 whole entry): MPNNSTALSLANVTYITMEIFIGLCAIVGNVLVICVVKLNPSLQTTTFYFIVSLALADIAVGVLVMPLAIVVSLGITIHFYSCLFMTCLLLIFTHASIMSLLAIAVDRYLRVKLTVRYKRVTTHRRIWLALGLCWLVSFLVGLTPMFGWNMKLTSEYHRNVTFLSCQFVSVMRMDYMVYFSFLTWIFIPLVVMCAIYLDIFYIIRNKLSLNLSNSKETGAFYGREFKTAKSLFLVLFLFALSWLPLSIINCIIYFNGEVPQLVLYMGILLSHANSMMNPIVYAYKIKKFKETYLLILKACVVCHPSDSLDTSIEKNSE
# Sequence of Adenosine receptor A2a (P29274 whole entry): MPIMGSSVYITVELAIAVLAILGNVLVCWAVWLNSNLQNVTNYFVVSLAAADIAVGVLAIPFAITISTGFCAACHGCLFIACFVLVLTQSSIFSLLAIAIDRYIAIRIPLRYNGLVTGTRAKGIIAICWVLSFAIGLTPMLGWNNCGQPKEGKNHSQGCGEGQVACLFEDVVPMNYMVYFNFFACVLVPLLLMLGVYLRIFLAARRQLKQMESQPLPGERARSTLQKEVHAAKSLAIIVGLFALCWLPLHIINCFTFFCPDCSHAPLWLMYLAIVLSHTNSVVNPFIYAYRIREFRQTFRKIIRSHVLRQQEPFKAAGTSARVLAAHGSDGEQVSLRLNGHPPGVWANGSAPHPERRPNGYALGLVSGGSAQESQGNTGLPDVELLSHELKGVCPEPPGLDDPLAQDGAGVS
Compound,pKi (Adenosine receptor A1),pKi (Adenosine receptor A2a),pKi (Adenosine receptor A3)
CNc1ncnc2c1ncn2[C@@H]1SC[C@@H](N)[C@H]1O,5.78,,
N[C@@H]1CS[C@@H](n2cnc3c(NCc4cccc(I)c4)nc(Cl)nc32)[C@@H]1O,5.66,5.62,6.42
N[C@@H]1CS[C@@H](n2cnc3c(NCc4cccc(I)c4)ncnc32)[C@@H]1O,5.61,5.64,6.59

# — ChEMBL document CHEMBL5030536, “Subtle Chemical Changes Cross the Boundary between Agonist and Antagonist: New A3 Adenosine Receptor Homology Models and Structural Network Analysis Can Predict This Boundary” (J Med Chem, 2021)
